According to patent US6974830B2, “NR1H4 nuclear receptor binding compounds” (Phenix Pharmaceuticals AG, priority 2001, dated 2005):
Like-named read-outs stand apart in the source and are kept apart here.

Key:
full length human FXR = target: T1, full length human FXR (Homo sapiens, UniProt Q96RI1); test: transactivation of FXR mediated transcription in a HEK293 reporter cell line (luciferase); type: cell-based; settings: for Emax: HEK293, read-out: EFFIC AVG (average efficacy, % activity relative to CDCA control agonist), relative to CDCA control agonist; for EC50: HEK293 FXR reporter cell line
T1 construct: expressed in transfected cells
T1 sequence (Q96RI1 1-472 isoform Q96RI1-2): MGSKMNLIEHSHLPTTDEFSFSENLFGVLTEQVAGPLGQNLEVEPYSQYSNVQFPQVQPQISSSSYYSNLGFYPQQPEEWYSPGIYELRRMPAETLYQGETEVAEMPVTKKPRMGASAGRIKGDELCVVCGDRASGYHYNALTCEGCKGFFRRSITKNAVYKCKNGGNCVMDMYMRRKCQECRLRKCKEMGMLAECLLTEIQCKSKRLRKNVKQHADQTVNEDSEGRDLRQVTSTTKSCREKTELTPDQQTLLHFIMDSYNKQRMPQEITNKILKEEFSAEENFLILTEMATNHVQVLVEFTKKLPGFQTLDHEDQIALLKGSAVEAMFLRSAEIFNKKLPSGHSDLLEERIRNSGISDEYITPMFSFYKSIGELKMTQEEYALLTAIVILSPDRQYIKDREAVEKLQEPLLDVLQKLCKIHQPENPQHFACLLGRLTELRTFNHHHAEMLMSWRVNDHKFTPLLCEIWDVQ
T1 sequence (P19793 1-462 partner): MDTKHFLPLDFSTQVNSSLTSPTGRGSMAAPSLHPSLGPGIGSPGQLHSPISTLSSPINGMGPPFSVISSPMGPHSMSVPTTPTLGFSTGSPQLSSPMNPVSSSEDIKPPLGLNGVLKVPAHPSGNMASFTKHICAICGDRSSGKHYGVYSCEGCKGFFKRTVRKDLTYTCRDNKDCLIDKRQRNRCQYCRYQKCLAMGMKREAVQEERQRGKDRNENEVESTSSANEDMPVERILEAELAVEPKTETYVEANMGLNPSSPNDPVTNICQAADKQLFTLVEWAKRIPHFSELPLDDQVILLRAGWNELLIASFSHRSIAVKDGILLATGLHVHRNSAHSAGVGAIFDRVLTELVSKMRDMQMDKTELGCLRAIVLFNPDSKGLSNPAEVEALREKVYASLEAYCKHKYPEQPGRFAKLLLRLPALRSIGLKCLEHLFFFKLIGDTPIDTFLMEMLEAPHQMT
Text: Tables 3, 4, 5 and 6 illustrate the preferred compounds according to the invention that can mediate transactivation of FXR mediated transcription in a HEK293 reporter cell line.
Stable HEK293FXR reporter cell lines were generated by stably transfecting with the pTRexDest30 (Invitrogen) derivatives pTRexDest30-hFXR, pTRexDest30-hRXR and the pGL2promoter (Promega) derivative pGL2promoter-FXRRE. The full length human FXR (accession U68233) and the full length human RXRα (accession P19793) were cloned into the pTRexDest30 applying the manufacturer protocols for the Gateway™ system (Invitrogen).
The FXR response elements were cloned (upper case and undrelined). 5′-cccaGGGTGAaTAACCTcggggctctgtccctccaatcccaGGGTGAaTAACCTcggg 3′ (SEQ ID NO. 5) was created from the human IBAB-P promoter (Grober et al 1999, JBC 274, pp. 29749-29754). A stable clone was selected and seeded at a density of […] cells per well in 48 well plates. Luciferase reporter activity was measured in duplicates from extracts of cells after incubating cells in culture medium (DMEM [Gibco-BRL]+10% FCS [PAA laboratories]) for 16 hours (5% CO2, 37° C.) containing 0.5% DMSO (control) or 0.5% DMSO with increasing concentrations of TR0800012996.

human FXR alpha (NR1H4) = target: T2, human FXR alpha (NR1H4) (Homo sapiens, UniProt Q96RI1); test: FXR binding / FXR-Tif 2 coactivator interaction, LANCE TR-FRET
T2 construct: agonist activity at the NR1H4 human nuclear receptor; fused on or other part: GST at the N-terminus (pDest15) in the TR-FRET test
T2 sequence (Q96RI1 1-486): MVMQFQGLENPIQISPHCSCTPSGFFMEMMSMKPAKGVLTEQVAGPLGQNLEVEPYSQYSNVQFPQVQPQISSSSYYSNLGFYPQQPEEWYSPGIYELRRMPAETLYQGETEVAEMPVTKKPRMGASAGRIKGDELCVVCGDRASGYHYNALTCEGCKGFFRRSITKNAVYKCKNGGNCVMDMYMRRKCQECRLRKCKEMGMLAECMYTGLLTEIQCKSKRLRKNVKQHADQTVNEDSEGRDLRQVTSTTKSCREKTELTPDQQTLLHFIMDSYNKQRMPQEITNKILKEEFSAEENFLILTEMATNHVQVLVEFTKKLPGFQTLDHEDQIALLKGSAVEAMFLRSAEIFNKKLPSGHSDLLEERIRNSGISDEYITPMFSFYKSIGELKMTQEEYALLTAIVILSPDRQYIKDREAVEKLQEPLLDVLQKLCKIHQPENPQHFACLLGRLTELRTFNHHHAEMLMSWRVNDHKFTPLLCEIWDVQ
Protocol: In particular, the invention relates to compounds as described above wherein the compounds are capable of binding the NR1H4 receptor protein or a portion thereof according to SEQ ID NOS 1-4 shown in FIGS. 4A-4D, respectively, or a mammalian homologue thereof. The claimed compound can bind to the NR1H4 receptor protein or a portion thereof in a mixture comprising 10-200 ng of NR1H4 receptor protein or a portion thereof, preferably the ligand binding domain, 20 mM Tris/HCl at pH 7.9; 60 mM KCl; 5 mM MgCl2; 160 ng/μl BSA in a total volume of preferably about 25 μl.
For in vitro screening for compounds which influence FXR binding to coactivators, a fragment of the open reading frame of human FXR alpha (NR1H4-(Acc. No:AF384555)) encoding aminoacids 187-472 was amplified by standard RT PCR procedures (see SEQ ID NOS. 1 and 2 in FIGS. 4A and 4B, respectively). The starting material was total RNA derived from human liver. The resulting cDNA obtained after reverse transcription was subsequently cloned using the Gateway™ recombination technology (Invitrogen, USA) into the expression plasmid pDest15 (Invitrogen, USA). This construct was used to express a recombinant GST-FXR fusion protein in E. coli (BL21 strain). A pDEST 17 derivative clone harboring an additional sequence encoding amino acids 548-878 of human TIF2 (Acc. No: XM—011633 RefSeq) was constructed using Gateway™ recombination technology (Invitrogen, USA) in order to obtain a construct which was used to express recombinant His-tagged TIF2 fragment in E. coli. For E. coli expression of both constructs, plasmid DNA was transformed into chemically competent E. coli BL21 (Invitrogen, USA) and cells were grown to an OD600 of 0.4-0.7 before expression was induced by addition of 0.5 mM IPTG according instructions of the manufacturer (Invitrogen). After induction for 8 hours at 30° C., the cells were harvested by centrifugation for 10 minutes at 5000×g. Fusion proteins were affinity purified using Glutathion sepharose (Pharmacia) or Ni-NTA Agarose (QIAGEN) according to the instructions of the respective manufacturer. Recombinant proteins were dialyzed against 20 mM Tris/HCL pH 7.9; 60 mM KCl; 5 mM MgCl2; 1 mM DTT, 0.2 mM PMSF; 10% glycerol. The TIF2 fragment was subsequently biotinylated by addition of 40-120 μl of a biotinamidocaproate N-hydroxysuccinimide-ester (Sigma) solution (20 mg/ml in DMSO). […]
For screening of the compound libraries as provided for by the methods described in Examples 2, 3 and 4 below for substances which influence the FXR/Tif 2 interaction, Perkin Elmer LANCE technology was used. […] For ease of handling and reduction of background from compound fluorescence, LANCE technology makes use of generic fluorophore labels and time resoved detection. […]

| Structure (SMILES) | Emax (full length human FXR; Table 6) [%] | Emax (full length human FXR; Tables 3-5) [%] | EC50 (full length human FXR; Tables 3-5) [nM] | EC50 (human FXR alpha (NR1H4); read-out: EC50 (effective binding concentration at FXR, half-maximal effective concentration)) [nM] | agonist activity at the NR1H4 human nuclear receptor (human FXR alpha (NR1H4)) |
| --- | --- | --- | --- | --- | --- |
| O=C(O)C1CCC(CNc2nc(-c3ccccc3O)c(Cc3c(F)cccc3F)s2)CC1 (stereo not shown) [LN0000006316] | 309 | 110 | 200 | – | – |
| O=C(O)c1ccc(CNc2nc(-c3ccccc3O)c(Cc3c(F)cccc3F)s2)cc1 [LN0000006317] | 223 | 115 | 1450 | – | – |
| O=C(O)C1CCC(CNc2nc(-c3ccccc3O)c(Cc3cccc(F)c3F)s2)CC1 (stereo not shown) [LN0000006322] | – | 115 | – | – | – |
| O=C(O)c1ccc(CNc2nc(-c3ccccc3O)c(Cc3cccc(F)c3F)s2)cc1 [LN0000006323] | – | 86 | 440 | – | – |
| COc1ccccc1Cc1sc(NCC2CCC(C(=O)O)CC2)nc1-c1ccccc1O (stereo not shown) [LN0000006328] | – | 116 | 4500 | – | – |
| COc1ccccc1Cc1sc(NCc2ccc(C(=O)O)cc2)nc1-c1ccccc1O [LN0000006329] | – | 105 | 730 | – | – |
| O=C(O)CCCCCNc1nc(-c2ccccc2O)c(Cc2cccc(F)c2F)s1 [LN0000006346] | – | 63 | 5120 | – | – |
| COc1ccccc1Cc1sc(NCCCCCC(=O)O)nc1-c1ccccc1O [LN0000006347] | – | 66 | 3100 | – | – |
| O=C(O)C1CCC(CNc2nc(-c3cccc(O)c3)c(Cc3c(F)cccc3F)s2)CC1 (stereo not shown) [LN0000006348] | – | 109 | 2390 | – | – |
| O=C(O)c1ccc(CNc2nc(-c3cccc(O)c3)c(Cc3c(F)cccc3F)s2)cc1 [LN0000006349] | – | 66 | 4050 | – | – |
| O=C(O)C1CCC(CNc2nc(-c3cccc(O)c3)c(Cc3c(Cl)cccc3Cl)s2)CC1 (stereo not shown) [LN0000006365] | 340 | 92 | 360 | – | – |
| O=C(O)C1CCC(CNc2nc(-c3ccccc3O)c(Cc3c(F)cccc3F)s2)CC1 (stereo not shown) [formula (III)] | – | – | – | 200 | – |
| O=C(O)C1CCC(CNc2nc(-c3cccc(O)c3)c(Cc3c(Cl)cccc3Cl)s2)CC1 (stereo not shown) [formula (IV)] | – | – | – | – | active as agonist |
| O=C(O)c1ccc(CNc2nc(-c3ccccc3O)c(Cc3cccc(F)c3F)s2)cc1 [formula (V)] | – | – | – | – | active as agonist |
| COc1ccccc1Cc1sc(NCc2ccc(C(=O)O)cc2)nc1-c1ccccc1O [formula (VI)] | – | – | – | – | active as agonist |
